Measured values as given in US20140057798A1, “PREDICTION OF DRUG SENSITIVITY OF LUNG TUMORS BASED ON MOLECULAR GENETIC SIGNATURES” (NESTEC S.A., priority 2011, published 2014).
Entries after “also recorded” stand apart in the source; their conditions may differ. Where two headings read alike, the source gives them in different places.

What was measured:
[1] = test system: eight human lung tumor cell lines; experiment: Inhibition of tumor cell growth, panel of lung tumor cell lines; format: cell-based
H460 cells [2] = experiment: Inhibition of tumor cell line growth (CellTiter-Glo), H460; format: cell-based, human; conditions: H460, single inhibitor 0.01-10 μM, 5% FBS, 48 hours
H1975 cells = experiment: Inhibition of tumor cell line growth (CellTiter-Glo), H1975; format: cell-based, human
H1993 cells [3] = experiment: Inhibition of tumor cell line growth (CellTiter-Glo), H1993; format: cell-based, human; conditions: H1993, single inhibitor 0.01-10 μM, 5% FBS, 48 hours
A549 cells [4] = experiment: Inhibition of tumor cell line growth (CellTiter-Glo), A549; format: cell-based, human; conditions: A549, single inhibitor 0.01-10 μM, 5% FBS, 48 hours
H1650 cells = experiment: Inhibition of tumor cell line growth (CellTiter-Glo), H1650; format: cell-based, human; conditions: H1650, single inhibitor 0.01-10 μM, 5% FBS, 48 hours
HCC827 cells = experiment: Inhibition of tumor cell line growth (CellTiter-Glo), HCC827; format: cell-based, human
A549 cells [5] = experiment: Anchorage-independent growth inhibition (soft agarose colonies), A549; format: cell-based, human; conditions: A549, 0.1 μM and 1 μM, two weeks, agar
Protocol: (§1) The plates were kept at 4° C. for 2 hr to solidify the cell-containing layer. The plates were then incubated at 37° C. in a CO2 incubator with 2 mL of medium containing various concentrations of the kinase inhibitor. The medium with the inhibitor was changed every 3 days.

H358 cells [6] = experiment: Anchorage-independent growth inhibition (soft agarose colonies), H358; format: cell-based, human; conditions: H358, 0.1 μM and 1 μM, two weeks, agar
Protocol: as §1

H460 cells [7] = experiment: Anchorage-independent growth inhibition (soft agarose colonies), H460; format: cell-based, human; conditions: H460, 0.1 μM and 1 μM, two weeks, agar
Protocol: as §1

H358 cells [8] = experiment: Inhibition of tumor cell line growth (CellTiter-Glo), H358; format: cell-based, human; conditions: H358, single inhibitor 0.01-10 μM, 5% FBS, 48 hours
[9] = test system: IGF-1R pathway in A549 cells; experiment: Inhibition of activated signaling pathways by kinase inhibitors (CEER assay), A549; format: cell-based, human; conditions: A549, serum-starved overnight, 4-hour treatment, CEER assay (FIG. 2)
Description: (§2) The principal of the CEER™ assay is based on the capture of the target protein by a target-specific antibody printed in two dilutions on the surface of a microarray slide. […] Formation of this complex is initiated by the binding of the first detecting antibody, which is coupled to glucose oxidase (GO), to an epitope on the captured target protein that is different from the epitope recognized by the capture antibody, followed by the binding of a second detecting antibody, which is coupled to horseradish peroxidase (HRP), to a phosphorylated tyrosine (p-Tyr) residue on the target protein. […]
(§3) The capture antibodies against mouse IgG, human epidermal growth factor receptor 1 (Her1), human epidermal growth factor receptor 2 (Her2), human epidermal growth factor receptor 3 (Her3), human hepatocyte growth factor receptor (cMET), human insulin-like growth factor-1 receptor (IGF1R), human stem cell growth factor receptor (cKit), human phosphatidylinositol-3-kinase (PI3K), human Src homology 2 domain-containing protein (SHC) and human cytokeratin (CK), were printed in this order in 10 rows from top to bottom in each slide. […] The relative fluorescence value of the respective reagent blank was subtracted from each sample to give a relative fluorescence unit (RFU) according the number of cells' extract.

[10] = test system: IGF-1R pathway in H460 cells; experiment: Inhibition of activated signaling pathways by kinase inhibitors (CEER assay), H460; format: cell-based, human; conditions: H460, serum-starved overnight, 4-hour treatment, CEER assay (FIG. 2)
Description: as §2, §3

H1734 cells [11] = experiment: Inhibition of tumor cell line growth (CellTiter-Glo), H1734; conditions: H1734, single inhibitor 0.01-10 μM, 5% FBS, 48 hours
[12] = test system: Her1 and/or Her2 pathway in H1734 cells; conditions: H1734, serum-starved overnight, 4-hour treatment, CEER assay (FIG. 2)
Description: as §2, §3

H1734 cells [13] = experiment: Anchorage-independent growth inhibition (soft agarose colonies), H1734; format: cell-based, human; conditions: H1734, 0.1 μM and 1 μM, two weeks, agar
H1993 cells [14] = experiment: Anchorage-independent growth inhibition (soft agarose colonies), H1993; format: cell-based, human; conditions: H1993, 0.1 μM and 1 μM, two weeks, agar
Protocol: as §1

[15] = test system: c-Met pathway in H1993 cells; experiment: Inhibition of activated signaling pathways by kinase inhibitors (CEER assay), H1993 c-Met; format: cell-based, human; conditions: H1993, serum-starved overnight, 4-hour treatment, CEER assay (FIG. 2)
Description: as §2, §3

[16] = H1975, single inhibitor 0.01-10 μM, 5% FBS, 48 hours

Row | SMILES | inhibition of cell proliferation (H460 cells [2]) | inhibition of cell proliferation (H1975 cells; [16]) | inhibition of cell proliferation (H1993 cells [3]) | inhibition of cell proliferation (A549 cells [4]) | inhibition of cell proliferation (H358 cells [8]) | other results
1 | Cn1c(=O)n(-c2ccc(C(C)(C)C#N)cc2)c2c3cc(-c4cnc5ccccc5c4)ccc3ncc21 [BEZ-235] | inhibited; also recorded: sensitive | weakly inhibited | only weakly | inhibited; also recorded: sensitive |  | inhibition of tumor cell growth across the cell lines tested [1]: effectively inhibited tumor cell growth in most of the cell lines tested, except the H1993 and H1650 cells
2 | CN(C)C/C=C/C(=O)Nc1cc2c(Nc3ccc(F)c(Cl)c3)ncnc2cc1O[C@H]1CCOC1 [BIBW-2992] |  |  | only weakly |  |  | inhibition of cell proliferation (H1650 cells): inhibited; inhibition of cell proliferation (H1975 cells): potently inhibit the growth; also recorded: moderately inhibited
3 | Cc1cc(N2CCOCC2)cc2[nH]c(-c3c(NC[C@@H](O)c4cccc(Cl)c4)cc[nH]c3=O)nc12 [BMS-536924] | weakly inhibited | able to inhibit the growth |  | inhibited | inhibit its proliferation more effectively | inhibition of cell proliferation (HCC827 cells; HCC827, single inhibitor 0.01-10 μM, 5% FBS, 48 hours): inhibition of proliferation; reduction of cell colony size, anchorage-independent growth (A549 cells [5]): reduce cell colony size formation dose-dependently; reduction of cell colony size, anchorage-independent growth (H358 cells [6]): reduce cell colony size formation dose-dependently; reduction of cell colony size, anchorage-independent growth (H460 cells [7]): reduce cell colony size formation dose-dependently; blocking of activated IGF-1R pathway [9]: able to block; blocking of activated IGF-1R pathway [10]: able to block
4 | C#Cc1cccc(Nc2ncnc3cc(OCCOC)c(OCCOC)cc23)c1 [Erlotinib] |  | inhibited |  |  |  | inhibition of cell proliferation (H1734 cells [11]): inhibited
5 | CS(=O)(=O)CCNCc1ccc(-c2ccc3ncnc(Nc4ccc(OCc5cccc(F)c5)c(Cl)c4)c3c2)o1 [Lapatinib] |  | resistant |  |  | weakly blocked | inhibition of cell proliferation (HCC827 cells): able to inhibit the proliferation; blocking of Her1 and/or Her2 pathway activation [12]: activation blocked
6 | O=C(NOC[C@H](O)CO)c1ccc(F)c(F)c1Nc1ccc(I)cc1F [PD-325901] | not | weakly inhibited | able to block the proliferation | not and weakly | not | inhibition of cell proliferation (H1734 cells [11]): effective in blocking the growth; proliferation of cell colony size, anchorage-independent growth (H1734 cells [13]): potently blocked
7 | C[C@@H](Oc1cc(-c2cnn(C3CCNCC3)c2)cnc1N)c1c(Cl)ccc(F)c1Cl [PF-2341066] |  |  | block its proliferation very effectively |  | not inhibited | large colony formation, anchorage-independent growth (H1993 cells [14]): inhibited; blocking of c-Met pathway activation [15]: blocked
